Test results reported in patent US20090209536A1, “AMINOQUINAZOLINE CANNABINOID RECEPTOR MODULATORS FOR TREATMENT OF DISEASE” (KALYPSYS, INC., priority 2007, published 2009).

Key:
[1] = target: T1, human cannabinoid receptor type 1 (Homo sapiens, UniProt P21554); experiment: Human CB1 Radioligand Binding Assay (basis of selectivity, CB2 vs. CB1); settings: CB1: HEK 293 EBNA cells expressing human CB1; CB2: CHO CB2 membranes
T1 construct: purchased Perkin Elmer RBHCB1M; host or cells: HEK 293 EBNA cells
T1 sequence (P21554 whole entry): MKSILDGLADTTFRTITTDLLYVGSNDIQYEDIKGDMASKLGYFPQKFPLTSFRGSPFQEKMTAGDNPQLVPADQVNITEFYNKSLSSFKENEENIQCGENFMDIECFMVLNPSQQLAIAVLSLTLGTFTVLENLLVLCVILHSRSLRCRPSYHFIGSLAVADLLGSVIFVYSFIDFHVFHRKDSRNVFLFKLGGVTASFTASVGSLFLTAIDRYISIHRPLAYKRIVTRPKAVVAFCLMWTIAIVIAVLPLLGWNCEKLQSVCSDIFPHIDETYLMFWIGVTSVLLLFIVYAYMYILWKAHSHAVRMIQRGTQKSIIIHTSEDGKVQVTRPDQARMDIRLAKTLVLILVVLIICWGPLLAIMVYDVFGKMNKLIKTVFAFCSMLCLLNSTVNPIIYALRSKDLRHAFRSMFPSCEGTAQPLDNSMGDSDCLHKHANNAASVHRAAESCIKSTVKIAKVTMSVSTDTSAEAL
Procedure: 2. Human CB1 Radioligand Binding Assay
The incubation buffer was composed of 50 mM Tris-HCl pH 7.4, 2.5 mM EDTA, 5 mM MgCl2, 5.0 mg/ml fatty acid free BSA and the wash buffer was composed of 50 mM Tris-HCl pH 7.4, 2.5 mM EDTA, 5 mM MgCl2, 0.5 mg/ml fatty acid free BSA.

[2] = target: T2, human cannabinoid receptor type 2 (Homo sapiens, UniProt P34972); experiment: Human CB2 Radioligand Binding Assay; settings: competition with [3H] CP-55,940; membranes from stably transfected CHO CB2 cells; read-out: CB2 Ligand Binding Asssay EC50
T2 construct: expressed in transfected cells; membrane preparation
T2 sequence (P34972 whole entry): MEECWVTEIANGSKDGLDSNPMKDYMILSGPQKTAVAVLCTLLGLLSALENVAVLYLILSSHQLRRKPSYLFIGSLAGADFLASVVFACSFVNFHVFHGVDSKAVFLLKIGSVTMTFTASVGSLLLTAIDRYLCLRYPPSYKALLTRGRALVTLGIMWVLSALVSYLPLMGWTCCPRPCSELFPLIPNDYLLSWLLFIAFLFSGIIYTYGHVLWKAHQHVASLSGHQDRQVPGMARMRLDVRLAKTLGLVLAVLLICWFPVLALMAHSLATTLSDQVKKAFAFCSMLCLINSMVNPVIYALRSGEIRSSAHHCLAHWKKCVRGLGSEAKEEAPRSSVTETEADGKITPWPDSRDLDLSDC
Procedure: 1. Human CB2 Radioligand Binding Assay
This receptor binding filtration assay measures the receptor-ligand interactions of compounds by measuring ability to compete with a radiolabeled control ligand. Reactions were performed in 96 deep-well plate (Costar 3961) with a final volume of 600 ul. Compounds were added to each well either in single point (10 uM final) or dose-response. Compounds were delivered in DMSO or further diluted in incubation buffer to a final assay DMSO concentration of 1%. Incubation buffer (50 mM Tris-HCl pH 7.4, 2.5 mM EGTA, 5 mM MgCl2, 5.0 mg/ml fatty acid free BSA) was added to each well. Following buffer addition, [^3H] CP-55,940 was added. Tritiated CP-55,940 (Perkin Elmer) was used at the Kd determined from prior saturation binding experiments conducted on each lot of membranes. Membrane preparations from stably transfected CHO CB2 cells were added and the reaction was incubated for 90 minutes at 30° C. Unifilter GF/C filtration plates (Perkin Elmer) were pre-wet with 0.05% polyethylenimine. Samples were transferred to Unifilter plates and separation of unbound radioligand was achieved using a vacuum manifold (Millipore). Following thorough washing with 5 ml/well ice-cold wash buffer (50 mM Tris-HCl pH 7.4, 2.5 mM EGTA, 5 mM MgCl2, 0.5 mg/ml fatty acid free BSA), filterplates were dried completely. Betaplate Scint Scintillation cocktail (25 ul, Perkin Elmer) was applied and plates were read using Microbeta Trilux (Wallac). Data analysis was performed in Spotfire. Activity of the positive control (100 nM CP-55,940) was set as 100% efficacy.
Stable recombinant Human CB2-CHO cell membranes were prepared as follows: Chinese Hamster Ovarian (CHO) cells stably expressing human cannabinoid receptor type 2 were grown to 90% confluence in 15×100 mm culture dishes under puromycin selection (5 ug/ml) Cells were harvested from culture flasks using a cell scraper, were washed once with cold phosphate-buffered saline (calcium and magnesium free) and pelleted by centrifugation at 400 g for 5 min at 4° C. Cell pellet was washed once with cold phosphate-buffered saline and centrifuged again at 400×g for 5 min at 4° C. The pellet was suspended in ice-cold lysis buffer (10 mM Tris-HCl, 0.1 mM EDTA, containing […], pH 7.5) and homogenized in a chilled 7 ml glass dounce homogenizer using 50 strokes. The homogenate was centrifuged at 400 g for 15 min at 4° C. The cloudy supernatant was collected and centrifuged at 41000 g for 30 min at 4° C. The resulting pellet was washed with ice-cold sucrose-free lysis buffer and centrifuged again at 41000 g for 30 min at 4° C. The membrane pellet was suspended in sucrose-free storage buffer (10 mm Tris-HCl, 0.1 mM EDTA, pH 7.5) to a concentration of 2-3 mg protein/ml. Aliquots were flash frozen in liquid nitrogen and stored at −80° C. Concentration was determined using Dc protein assay kit (Bio-Rad).

Row | Structure (SMILES) | Selectivity, CB2 vs. CB1 [1] | EC50 [2] [µM]
1 | O=S(=O)(NCc1nc(N2CCCC2)c2ccccc2n1)c1cccc2ccccc12 [Example 1, N-((4-(Pyrrolidin-1-yl)quinazolin-2-yl)methyl)naphthalene-1-sulfonamide] | + (+ indicates > 10−fold) | < 1
2 | Cc1cccc2c(N3CCCC3)nc(CNS(=O)(=O)c3cccc4ccccc34)nc12 [Example 2, N-((8-Methyl-4-(pyrrolidin-1-yl)quinazolin-2-yl)methyl)naphthalene-1-sulfonamide] | + (+ indicates > 10−fold) | < 1
3 | O=S(=O)(NCc1nc(N2CCCC2)c2ccccc2n1)c1ccccc1 [Example 3, N-((4-(Pyrrolidin-1-yl)quinazolin-2-yl)methyl)benzenesulfonamide] | + (+ indicates > 10−fold) | < 1
4 | O=S(=O)(NCc1nc(N2CCCC2)c2ccccc2n1)c1ccc(F)cc1F [Example 4, 2,4-Difluoro-N-((4-(pyrrolidin-1-yl)quinazolin-2-yl)methyl)benzenesulfonamide] | − (− indicates ≦ 10−fold) | < 1
5 | CN1CCN(c2nc(CNS(=O)(=O)c3cccc4ccccc34)nc3ccccc23)CC1 [Example 5, N-((4-(4-Methylpiperazin-1-yl)quinazolin-2-yl)methyl)naphthalene-1-sulfonamide] | + (+ indicates > 10−fold) | < 1
6 | CN1CCN(c2nc(CNS(=O)(=O)c3ccc4ccccc4c3)nc3ccccc23)CC1 [Example 6, N-((4-(4-methylpiperazin-1-yl)quinazolin-2-yl)methyl)naphthalene-2-sulfonamide] | + (+ indicates > 10−fold) | > 1
7 | COC(=O)c1sccc1S(=O)(=O)NCc1nc(N2CCCC2)c2ccccc2n1 [Example 7, Methyl 3-(N-((4-(Pyrrolidin-1-yl)quinazolin-2-yl)methyl)sulfamoyl)thiophene-2-carboxylate] | + (+ indicates > 10−fold) | < 1
8 | CNC(=O)c1sccc1S(=O)(=O)NCc1nc(N2CCCC2)c2ccccc2n1 [Example 8, N-Methyl-3-(N-((4-(pyrrolidin-1-yl)quinazolin-2-yl)methyl)sulfamoyl)thiophene-2-carboxamide] | + (+ indicates > 10−fold) | > 1
9 | CCN(CC)CCNC(=O)c1sccc1S(=O)(=O)NCc1nc(N2CCCC2)c2ccccc2n1 [Example 9, N-(2-(Diethylamino)ethyl)-3-(N-((4-(pyrrolidin-1-yl)quinazolin-2-yl)methyl)sulfamoyl)thiophene-2-carboxamide] | − (− indicates ≦ 10−fold) | > 1
10 | O=C(NCc1nc(N2CCCC2)c2ccccc2n1)Nc1ccc(Cl)cc1Cl [Example 10, 1-(2,4-Dichlorophenyl)-3-((4-(pyrrolidin-1-yl)quinazolin-2-yl)methyl)urea] | + (+ indicates > 10−fold) | > 1
11 | O=C(NCc1nc(N2CCCC2)c2ccccc2n1)Nc1ccc(Cl)c(C(F)(F)F)c1 [Example 11, 1-(4-Chloro-3-(trifluoromethyl)phenyl)-3-((4-(pyrrolidin-1-yl)quinazolin-2-yl)methyl)urea] | − (− indicates ≦ 10−fold) | > 1
12 | O=C(NCc1nc(N2CCCC2)c2ccccc2n1)c1ccc(Cl)cc1 [Example 12, 4-Chloro-N-((4-(pyrrolidin-1-yl)quinazolin-2-yl)methyl)benzamide] | − (− indicates ≦ 10−fold) | > 1
13 | Fc1ccc(-c2nc(N3CCCC3)c3ccccc3n2)cc1F [Example 13, 2-(3,4-Difluorophenyl)-4-(pyrrolidin-1-yl)quinazoline] | − (− indicates ≦ 10−fold) | < 1
14 | Fc1ccc(-c2nc(N3CCCC3)c3ccccc3n2)cc1F [Example 14, 2-(3,4-Difluorophenyl)-4-(pyrrolidin-1-yl)quinazoline] |  | > 1
15 | Fc1ccc(-c2nc(N3CCCCC3)c3ccccc3n2)cc1F [Example 15, 2-(3,4-difluorophenyl)-4-(piperidin-1-yl)quinazoline] | − (− indicates ≦ 10−fold) | < 1
16 | Fc1ccc(-c2nc(N3CCOCC3)c3ccccc3n2)cc1F [Example 16, 4-(2-(3,4-difluorophenyl)quinazolin-4-yl)morpholine] | − (− indicates ≦ 10−fold) | > 1

Row | Structure (SMILES) | Selectivity, CB2 vs. CB1 [1] | EC50 [2] [µM]
17 | CN(Cc1ccccc1)c1nc(-c2ccc(F)c(F)c2)nc2ccccc12 [Example 17, N-benzyl-2-(3,4-difluorophenyl)-N-methylquinazolin-4-amine] | − (− indicates ≦ 10−fold) | > 1
18 | CN1CCN(c2nc(-c3ccc(F)c(F)c3)nc3ccccc23)CC1 [Example 18, 2-(3,4-Difluorophenyl)-4-(4-methylpiperazin-1-yl)quinazoline] | + (+ indicates > 10−fold) | < 1
19 | CC(=O)N1CCN(c2nc(-c3ccc(F)c(F)c3)nc3ccccc23)CC1 [Example 19, 1-(4-(2-(3,4-Difluorophenyl)quinazolin-4-yl)piperazin-1-yl)ethanone] | + (+ indicates > 10−fold) | < 1
20 | CN(Cc1ccccc1)c1nc(C2CCCCC2)nc2ccccc12 [Example 39, N-Benzyl-2-cyclohexyl-N-methylquinazolin-4-amine] |  | < 1
21 | CC(C)(C)c1ccc(-c2nc(NC3CCCCC3)c3ccccc3n2)cc1 [Example 129, 2-(4-tert-Butylphenyl)quinazolin-4-yl cyclohexylamine] |  | < 1
22 | c1ccc2c(N3CCCC3)nc(C3CCCC3)nc2c1 [Example 135, 2-Cyclopentyl-4-pyrrolidin-1-ylquinazoline] |  | > 1
23 | CC(C)(C)c1ccc(Nc2nc(-c3ccc(OC(F)(F)F)cc3)nc3ccccc23)cc1 [Example 143, (4-tert-Butylphenyl)-[2-(4-trifluoromethoxyphenyl)-quinazolin-4-yl]amine] |  | > 1
24 | CN1CCN(c2nc(-c3ccccc3Cl)nc3ccc(Br)cc23)CC1 [Example 183, 6-Bromo-2-(2-chlorophenyl)-4-(4-methylpiperazin-1-yl)quinazoline] |  | < 1
25 | CCOC(=O)N1CCN(c2nc(-c3ccc(Cl)cc3)nc3ccc(Cl)cc23)CC1 [Example 210, Ethyl 4-(6-chloro-2-(4-chlorophenyl)quinazolin-4-yl)piperazine-1-carboxylate] |  | > 1
26 | COC(CNc1nc(-c2ccccc2Cl)nc2ccccc12)OC [Example 230, 2-(2-Chlorophenyl)-N-(2,2-dimethoxyethyl)quinazolin-4-amine] |  | > 1
27 | O=S(=O)(NCc1nc(N2CCOCC2)c2ccccc2n1)c1ccccc1Br [Example 292, 2-Bromo-N-((4-morpholinoquinazolin-2-yl)methyl)benzenesulfonamide] |  | < 1
28 | O=S(=O)(NCc1nc(N2CCOCC2)c2ccccc2n1)c1ccc(Cl)cc1 [Example 293, 4-Chloro-N-((4-morpholinoquinazolin-2-yl)methyl)benzenesulfonamide] |  | > 1
29 | Cc1c(Cl)cccc1S(=O)(=O)NCc1nc(N2CCOCC2)c2ccccc2n1 [Example 295, 3-Chloro-2-methyl-N-((4-morpholinoquinazolin-2-yl)methyl)benzenesulfonamide] |  | > 1
30 | CCOC(=O)N1CCN(c2nc(-c3ccccc3Cl)nc3cc(C(=O)N(CC)CC)ccc23)CC1 [Example 319, Ethyl 4-(2-(2-chlorophenyl)-7-(diethylcarbamoyl)quinazolin-4-yl)piperazine-1-carboxylate] |  | > 1
31 | COC(=O)c1ccc2nc(-c3ccccc3Cl)nc(Nc3ccccc3C)c2c1 [Example 329, Methyl 2-(2-chlorophenyl)-4-(o-tolylamino)quinazoline-6-carboxylate] |  | > 1
